One test relates to VEGF-stimulated HUVEC. In words: VEGF-stimulated HUVEC proliferation assay (BrdU). It counts as cell-based. Particulars: Homo sapiens, BrdU labeling, VEGF 20 ng per mL, 24 hour exposure, read-out: Antiproliferative Activity VEGF-stimulated HUVEC Assay IC50. As to the method:
(§1) The antiproliferative activity of test compounds of this invention in cell-based assays was evaluated by BrdU assay using the BrdU kit (Roche Biochemicals 1-647-229). Human umbilical vein endothelial cells (HUVEC, Clonetics CC-2519) were cultured in EGM-2 (Clonetics CC-3162) medium and seeded at 10000 cells per well in a volume of 200 μL of EGM-2 (Clonetics CC-3162) media in a 96-well flat bottom plates (Costar 3595) overnight. After 24 hours of growth at 37° C. with 5% CO2, the incubation media was removed slowly by aspiration, and the content of each well was washed with 300 μL pre-warmed EBM-2 (Clonetics CC-3156) containing 50 μg per mL of gentamycin and 50 ng per mL of amphotercin-B (Clonetics CC-4083). Subsequently, the remaining media was again aspirated and replaced with 160 μL per well of serum starvation media (EBM-2 supplemented with 1% heat inactivated FBS (Clonetics CC-4102), 50 μg per mL gentamycin and 50 ng per mL of amphotercin-B (Clonetics CC-4083), 10 units per mL of Wyeth-Ayerst heparin (NDC0641-0391-25), and 2 mM L-glutamine (GIBCO 25030-081). After serum starving the cells for 24 hours, 20 μL of test compound at 10× test concentration in serum starvation medium with 2.5% DMSO was added to the appropriate wells. The control wells contained 20 μL of serum starvation medium with 2.5% DMSO. Plates were returned to the incubator for 2 hours. After pre-incubating the cells with the test compounds for 2 hours, 20 μL of growth factors at 10X assay concentration diluted in serum starvation media, FGF at 50 ng per mL, or VEGF (R&D systems 293-VE) at 200 ng per mL were added. The final concentration of FGF in the assay was 5 ng per mL and the final concentration of VEGF in the assays was 20 ng per mL. The growth factor free control wells had 20 μL per well of serum starvation media with the same amount of BSA as the wells with growth factors. The plates were returned to the incubator for an additional 22 hours.
(§2) After 24 hour exposure to the test compounds, the cells were labeled with BrdU (Roche Biochemicals 1-647-229), by adding 20 μL per well of BrdU labeling reagent that has been diluted (1:100) in serum starvation medium. The plates were then returned to the incubator for 4 hours. The labeling medium was removed by draining the medium onto paper towels. […] The plates were read at 450 nm with reference wavelength of 650 nm. The percent inhibition for each test compound was calculated by subtracting the absorbency of the blank (no cells) wells from all wells, then subtracting the division of the average absorbency of each test duplicate by the average of the controls from 1. […] The IC50 is determined from the linear regression of a plot of the logarithm of the concentration versus percent inhibition.

A further test has as its system HCT-116. In words: HCT-116 (colon) cell-based MTT proliferation assay. To be noted: Homo sapiens, HCT-116, 96 h, 4 days post addition of test compound, read-out: Antiproliferative Activity HCT 116 (colon) Assay IC50. As to the method: The estrogen receptor negative epithelial breast carcinoma line (MDA-MB-435) was purchased from American Type Cell Culture Collection (ATCC; Rockville, Md.) and was grown in the medium recommended by ATCC. For analysis of the effect of the test compounds on growth of these cells, the cells were plated at 2000 cells per well in a 96-well tissue culture plate, and were incubated overnight at 37° C. with 5% CO2. The next day, the test compounds were dissolved in 100% dimethyl sulfoxide (DMSO) to yield a 10 mM stock solution. Each compound was diluted with sterile medium to 1 mM in a sufficient quantity to yield a final concentration of 120 μM. The compounds were then serially diluted in medium with 1.2% DMSO. One-fourth final volume of the diluted compounds was transferred to 96 well plates. Test compounds were assayed in duplicate. DMSO was added to a row of “control cells” such that the final concentration of DMSO in each well was 0.3%. Wells to which no cells were added served as the “blank.” Wells to which no inhibitor was added served as “no inhibitor control”. The plates were returned to the incubator, and 5 days post addition of test compound, were analyzed as described below.
3-(4,5-Dimethylthiazole-2-yl)-2,5-diphenyl-2H-tetrazolium bromide (thiazolyl blue; MTT) was added to each well to yield a final concentration of 1 mg/mL. The plates were then incubated at 37° C. for 3 hours. The plates were centrifuged at 1000 rpm for 5 minutes prior to aspiration of the MTT-containing medium. The MTT-containing medium was then removed and 100 μL 100% ethanol was added to each well to dissolve the resulting formazan metabolite. To ensure complete dissolution, plates were shaken for 15 minutes at room temperature. Absorbencies were read in a microtiter plate reader (Molecular Dynamics) at a wavelength of 570 nm with a 650 nm reference. Percent inhibition was calculated by subtracting the absorbance of the blank (no cell) wells from all wells, then subtracting the division of the average absorbance of each test duplicate by the average of the controls from 1.00. Inhibitory concentrations (IC50) were determined from the linear regression of a plot of the logarithm of the concentration versus the percent inhibition.
The colon adenocarcinoma line SW480 and the colon carcinoma line HCT-116 also were obtained from the ATCC and were tested according to the same protocol provided above for MDA-MB-435 cell based assay with the following modifications. Cell line SW480 was plated at 1000 cells per well and analyzed at 6 days post addition of the test compound. Cell line HCT-116 was plated at 1000 cells per well and analyzed at 4 days post addition of test compound.

A further test relates to FGF-stimulated HUVEC. Kind of test: FGF-stimulated HUVEC proliferation assay (BrdU). To be noted: Homo sapiens, BrdU labeling, FGF 5 ng per mL, 24 hour exposure, read-out: Antiproliferative Activity FGF-stimulated HUVEC Assay IC50. It counts as cell-based. As to the method: as §1, §2

From patent US7524840B2, “7,8-disubstituted pyrazolobenzodiazepines” (Hoffmann-La Roche Inc., priority 2004, dated 2009) come the findings set out here.

For the molecule `COc1cc2c(cc1F)C(c1ccccc1Cl)=Nc1c(n[nH]c1C)N2` [IVa, 5-(2-chlorophenyl)-1,2-dihydro-7-fluoro-8-methoxy-3-methyl-pyrazolo[3,4-b][1,4]benzodiazepine], the results for the IC50 in the test with VEGF-stimulated HUVEC, in the test with HCT-116 and in the test with FGF-stimulated HUVEC were 23 nM, 1040 nM and 100 nM, respectively.
